Assay results published in the supplement of paper PMC10307832.

Key:
Assay in all cases: relative viability (nuclei count vs DMSO), 5 days (fraction); higher = more cells survive
[1] = compound: C1CN(CCN1)C2=CC=C(C=C2)C3=CN4C(=C(C=N4)C5=CC=NC6=CC=CC=C56)N=C3 [DM3189] + CCNC(=O)c1noc(-c2cc(C(C)C)c(O)cc2O)c1-c1ccc(CN2CCOCC2)cc1 [Luminespib] (partner 0.01 µM)
Method in brief: (§1)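 Values are medians from duplicate plates. Each reflects relative viability, defined as the nuclei count of treated wells over that of vehicle wells. Lung cancer cell lines in 1536-well plates were pin-tool dosed one day after seeding with one drug alone or with a fixed anchor-drug dose plus five library-drug doses (not always all listed) in √10 steps, then fixed, stained and imaged at 4× after 5 days.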

[2] = compound: C1CN(CCN1)C2=CC=C(C=C2)C3=CN4C(=C(C=N4)C5=CC=NC6=CC=CC=C56)N=C3 [DM3189] + COc1cc2c(Oc3ccc(NC(=O)C4(C(=O)Nc5ccc(F)cc5)CC4)cc3F)ccnc2cc1OCCCN1CCOCC1 [Foretinib] (partner 0.25 µM)
Method in brief: as §1

[3] = compound: C1CN(CCN1)C2=CC=C(C=C2)C3=CN4C(=C(C=N4)C5=CC=NC6=CC=CC=C56)N=C3 [DM3189] + COc1cccc2cc(-c3nc([C@H]4CC[C@H](C(=O)O)CC4)n4ncnc(N)c34)[nH]c12 [OSI-027] (partner 0.5 µM)
Method in brief: as §1

[4] = compound: C1CN(CCN1)C2=CC=C(C=C2)C3=CN4C(=C(C=N4)C5=CC=NC6=CC=CC=C56)N=C3 [DM3189] + Cc1nc(NC(=O)N2CCC[C@H]2C(N)=O)sc1-c1ccnc(C(C)(C)C(F)(F)F)c1 [Alpelisib] (partner 2 µM)
Method in brief: as §1

[5] = compound: C1CN(CCN1)C2=CC=C(C=C2)C3=CN4C(=C(C=N4)C5=CC=NC6=CC=CC=C56)N=C3 [DM3189] + Nc1ncn([C@H]2C[C@H](O)[C@@H](CO)O2)c(=O)n1 [Decitabine] (partner 2 µM)
Method in brief: as §1

Row | Cell Line | relative viability ([1]; first compound 0.08 µM) | relative viability ([1]; first compound 0.253 µM) | relative viability ([1]; first compound 0.8 µM) | relative viability ([1]; first compound 2.53 µM) | relative viability ([2]; first compound 0.08 µM) | relative viability ([2]; first compound 0.253 µM) | relative viability ([2]; first compound 0.8 µM) | relative viability ([2]; first compound 2.53 µM) | relative viability ([3]; first compound 0.08 µM) | relative viability ([3]; first compound 0.253 µM) | relative viability ([3]; first compound 0.8 µM) | relative viability ([3]; first compound 2.53 µM) | relative viability ([4]; first compound 0.08 µM) | relative viability ([4]; first compound 0.253 µM) | relative viability ([4]; first compound 0.8 µM) | relative viability ([4]; first compound 2.53 µM) | relative viability ([5]; first compound 0.08 µM) | relative viability ([5]; first compound 0.253 µM) | relative viability ([5]; first compound 0.8 µM) | relative viability ([5]; first compound 2.53 µM)
1 | CAL-12T | 0.375 | 0.499 | 0.454 | 0.217 | 1.2 | 1.07 | 1.13 | 1.12 | 0.829 | 0.629 | 0.869 | 1 | 1.42 | 1.14 | 1.41 | 1.43 | – | – | – | –
2 | NCI-H1792 | 0.416 | 0.552 | 0.445 | 0.328 | – | – | – | – | 0.585 | 0.703 | 0.661 | 0.839 | 0.545 | 0.682 | 0.624 | 0.401 | 0.529 | 0.519 | 0.397 | 0.579
3 | HCC-366 | – | – | – | – | 0.939 | 0.975 | – | 0.936 | 0.888 | 0.856 | – | 0.808 | 0.417 | 0.436 | 0.167 | 0.423 | 0.396 | 0.293 | 0.269 | 0.341
4 | HCC-44 | 1.06 | 0.879 | 0.856 | 0.97 | – | – | – | – | 0.631 | 0.482 | 0.373 | 0.596 | 0.874 | 0.942 | 0.631 | 0.757 | 0.941 | 0.904 | 0.821 | 0.934
5 | NCI-H1703 | – | – | – | – | 0.37 | 0.443 | 0.395 | 0.263 | – | – | – | – | 0.389 | 0.366 | 0.384 | 0.285 | – | – | – | –
6 | NCI-H1650 | 0.183 | 0.183 | 0.188 | 0.197 | 1.04 | 1.18 | 1.21 | 1.12 | 0.715 | 0.658 | 0.468 | 0.524 | – | – | – | – | 0.367 | 0.462 | 0.366 | 0.425
7 | HCC-78 | – | – | – | – | 0.549 | 0.534 | 0.529 | 0.435 | 0.383 | 0.35 | 0.371 | 0.358 | 0.635 | 0.315 | – | 0.311 | 0.723 | 0.644 | 0.632 | 0.625
8 | NCI-H522 | 1.31 | 0.984 | 1.27 | 1.16 | – | – | – | – | 0.796 | 0.695 | 0.685 | 0.828 | – | – | – | – | 0.592 | 0.652 | 0.667 | 0.636
9 | NCI-H2228 | 0.112 | 0.132 | 0.144 | 0.167 | 0.802 | 0.828 | 0.7 | 0.517 | 0.73 | 0.517 | 0.434 | 0.322 | 0.683 | 0.79 | 0.513 | 0.211 | – | – | – | –
10 | SW 900 | 0.174 | 0.166 | 0.156 | 0.196 | 0.996 | 0.875 | 0.794 | 0.728 | 0.618 | 0.544 | 0.584 | 0.606 | – | – | – | – | 0.467 | – | 0.424 | 0.407
